The source of these data is US12246009B2, “Compositions and methods for treating neurodegenerative, myodegenerative, and lysosomal storage disorders” (GEORGETOWN UNIVERSITY, priority 2018, dated 2025).

Each structure is given as a SMILES string.

One data set concerns amyloid-beta (6E10). As to the kind of experiment: Amyloid-beta (6E10) immunoblot in transgenic APP mice. Type of data set: in vivo, mouse. Conditions: 1.25 and 2.5 mg/kg i.p., 21 consecutive days. In general terms: A western blot detects proteins with antibodies after separation by electrophoresis.
The subject of another data set is B35 cells. As to the kind of experiment: Lactate dehydrogenase (LDH) assay, cytotoxicity / cell viability. Conditions: for LDH measured in the media (cell death / toxicity): 24 hour transfection with pTau or α-synuclein. Type of data set: cell-based. On the procedure: Rat neuroblastoma B35 cells were grown in Dulbecco's Modified Eagle's Medium (DMEM) with 10% Fetal Bovine Serum (FBS) and 1% penicillin/streptomycin and incubated at 37° C. with 5% CO2. For the experiments, cells were transferred to 12-well plates (Cat. #150628, ThermoFisher, Waltham, MA) and grown to at least 70% confluence. Transient transfection was performed with 3 μg P301 L tau (Cat. #30145, Addgene) cDNA or 3 μg human α-synuclein cDNA using Fugene HD transfection reagent (Cat. #E2311, Promega, Madison WI) for 24 hours. […] Cell culture media was collected and cells were harvested using sodium-tris, EDTA, NP-40 (STEN) buffer and centrifuged at 10,000×g for 20 minutes at 4′C and supernatant was collected. Cell viability was determined via lactate dehydrogenase assay (Cat. #88954, Thermofisher) and MTT assay (Cat. #V13154, Thermofisher). Protein was extracted by removing culture medium and adding 0.2 ml 1× STEN buffer (50 mM. Tris (pH 7.6), 150 mM NaCl, 2 mM EDTA, 0.2% NP-40, 0.2% BSA, 20 mM. PMSF and protease cocktail inhibitor) to cell layer and incubated on ice for 10 minutes. The bottom of the well was scraped and allowed to incubate on ice for an additional 10 minutes. Cell lysates were collected, stored at −80° C., and used for additional analyses.
Cellular cytotoxicity was quantitatively measured by assessment of LDH; a cytosolic enzyme that is released from damaged cells into the cellular media, after exposure to the drug 5 hours after initial dosage. The cell culture media was collected, and an aliquot was coupled with a lactate and NAD+. LDH catalyzes the reaction that converts lactate into pyruvate to produce NADH. NADH, in turn, reduces a tetrazolium salt (INT) into a red formazan product. The amount of LDH in the media is proportional to the amount of formazan, which was measured at 490 nm. The absorbance at 680 nm, to measure the background signal from the instrument, was subtracted from the absorbance at 490 nm to calculate the LDH activity.

Another data set concerns APP mice. The data set is described as follows: Morris Water Maze test in APP mice. Type of data set: in vivo, mouse. Particulars: 1.25 mg/kg, trend, no significant difference between groups.
Another data set deals with dopamine. As to the kind of experiment: Dopamine and homovanillic acid (HVA) levels in A53T mice. Type of data set: in vivo, mouse. Conditions: 2.5 mg/kg i.p., 21 days.
The next data set deals with α-synuclein. The data set is described as follows: α-synuclein ELISA in α-synuclein-transfected B35 cells. Type of data set: cell-based, rat. Particulars: transfected B35 cell culture model, doses 10 uM-1 mM. On the procedure: Rat neuroblastoma B35 cells were grown in Dulbecco's Modified Eagle's Medium (DMEM) with 10% Fetal Bovine Serum (FBS) and 1% penicillin/streptomycin and incubated at 37° C. with 5% CO2. For the experiments, cells were transferred to 12-well plates (Cat. #150628, ThermoFisher, Waltham, MA) and grown to at least 70% confluence. Transient transfection was performed with 3 μg P301 L tau (Cat. #30145, Addgene) cDNA or 3 μg human α-synuclein cDNA using Fugene HD transfection reagent (Cat. #E2311, Promega, Madison WI) for 24 hours. Cells were treated with 1 mM, 100 μM, 10 μM, 1 μM, 0.1 μM, 0.01 μM, and 0.001 μM dissolved in DMSO or an equivalent 5 ul of DMSO for 5 hours. Cell culture media was collected and cells were harvested using sodium-tris, EDTA, NP-40 (STEN) buffer and centrifuged at 10,000×g for 20 minutes at 4′C and supernatant was collected. Cell viability was determined via lactate dehydrogenase assay (Cat. #88954, Thermofisher) and MTT assay (Cat. #V13154, Thermofisher). Protein was extracted by removing culture medium and adding 0.2 ml 1× STEN buffer (50 mM. Tris (pH 7.6), 150 mM NaCl, 2 mM EDTA, 0.2% NP-40, 0.2% BSA, 20 mM. PMSF and protease cocktail inhibitor) to cell layer and incubated on ice for 10 minutes. The bottom of the well was scraped and allowed to incubate on ice for an additional 10 minutes. Cell lysates were collected, stored at −80° C., and used for additional analyses.
To perform transient transfection of α-synuclein into the rat neuroblastoma B35 cells FuGene® HD Transfection Reagent (Promega Corporation, Madison, WI) was used. Cells were grown in 12-well dishes. […]
Human α-synuclein and p-tau ELISA were performed using 50 μl (1 μg/4 μl) of cell lysates detected with 50 μl primary antibody (3 h) and 100 μl anti-rabbit secondary antibody (30 min) at RT. α-Synuclein levels were measured using human specific ELISA (Invitrogen Inc., Carlsbad, CA) according to manufacturer's protocols. Tau was measured using specific tau at serine 396 according to manufacturer's protocol. […]
A general note: In an ELISA, binding on a coated surface is turned into a signal by an enzyme label.

Another data set has as its system human alpha-synuclein. The data set is described as follows: Human alpha-synuclein ELISA and immunoblot in A53T mice. Format: in vivo, mouse. Particulars: 2.5 mg/kg i.p.; for alpha-synuclein level in A53T mice: vs DMSO.
The next data set concerns pTau (191). As to the kind of experiment: pTau in CamP301L mice. Format: in vivo, mouse. Conditions: 2.5 mg/kg or 5 mg/kg.
The target of a further data set is T1, Src (Mus musculus, UniProt P05480).
T1 construct: Brains from treated mice compared with DMSO treated mice were homogenized in STEN lysis buffer; from tissue; host or cells: brain of rTg4510 mice
The data set is described as follows: Activated Src immunoblot in rTG4510 mice. Type of data set: in vivo. Conditions: rTG4510 mice, 1.25, 2.5 or 5 mg/kg i.p., 7 days.

The next data set relates to pTau (231) (AT180). As to the kind of experiment: pTau (231) (AT180) Western blot in rTG4510 transgenic mice. Format: in vivo, mouse. Conditions: 1.25 mg/kg, 2.5 mg/kg or 5.0 mg/kg.

T1 sequence (P05480 whole entry): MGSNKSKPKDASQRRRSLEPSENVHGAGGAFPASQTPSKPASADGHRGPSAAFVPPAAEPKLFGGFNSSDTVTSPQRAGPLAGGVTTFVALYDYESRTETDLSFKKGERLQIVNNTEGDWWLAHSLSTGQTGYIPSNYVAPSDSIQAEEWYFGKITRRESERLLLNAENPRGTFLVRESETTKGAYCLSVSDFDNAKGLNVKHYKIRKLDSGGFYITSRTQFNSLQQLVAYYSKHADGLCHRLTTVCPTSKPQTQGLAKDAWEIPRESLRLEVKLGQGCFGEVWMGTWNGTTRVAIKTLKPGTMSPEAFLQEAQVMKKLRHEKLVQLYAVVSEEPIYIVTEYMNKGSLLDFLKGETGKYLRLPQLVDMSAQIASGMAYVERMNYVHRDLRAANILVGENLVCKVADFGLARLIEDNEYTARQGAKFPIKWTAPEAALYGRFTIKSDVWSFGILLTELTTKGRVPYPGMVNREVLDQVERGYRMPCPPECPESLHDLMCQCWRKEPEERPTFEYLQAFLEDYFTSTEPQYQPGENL

In the case of `Cc1cccc(-c2cc3nccc(Nc4ccccc4)c3s2)c1` [BK40143, N-Phenyl-2-(m-tolyl)thieno[3,2-b]pyridin-7-amine], the “aggregating extracellular amyloid-beta (6E10), immunoblot” value in the data set with amyloid-beta (6E10) is recorded as “significantly reduced amyloid-beta plaques”. For the same molecule, in the data set with B35 cells (1 μM, 16 hours of treatment, compared to control), the “lactate dehydrogenase (LDH), neuroprotective effect” value was “decrease”. The “LDH measured in the media (cell death / toxicity)” value is “does not result in toxicity or cell death” in the data set with B35 cells (five hours of treatment) and “without any change to LDH levels” with B35 cells (five hours of treatment, listed as BK41043). Also, in the data set on B35 cells (five hours of treatment, with decreasing concentrations), the “cell viability via LDH” value is “stepwise increase in cell viability”. For the same molecule, the “distance travelled before first entry to the platform, Morris Water Maze” value with APP mice is reported as “lower distance travelled before the first entry”. The “latency to the first entry, Morris Water Maze” value in the data set on APP mice is reported as “lower latency to first entry”. For the same molecule, the “number of platform entries, Morris Water Maze” value with APP mice was “higher numbers of platform entries”. The “level of the dopamine metabolite homovanillic acid (HVA)” value in the data set on dopamine was “increase”. Besides, the “increase of overall level of dopamine” value is recorded as 30% with dopamine (2.5 mg/kg) and “about 30%” with dopamine (listed as BK-40143, 2.5 mg/kg). In addition, the level of alpha-synuclein result with α-synuclein is “appear to reduce the level of alpha-synuclein”. Also, the “reduction in the level of human alpha-synuclein, ELISA” value in the data set on human alpha-synuclein (21 consecutive days, vs DMSO treated A53T mice) is 39%. Besides, the “alpha-synuclein level in A53T mice” value with human alpha-synuclein (21 consecutive days, 2.5 mg/kg) is “significantly reduces”; in the data set on human alpha-synuclein (21 consecutive days, listed as BK-40143, 2.5 mg/kg) it was “significantly decreased”. For the same molecule, the “reduction in alpha-synuclein, immunoblots” value in the data set with human alpha-synuclein (21 days, immunoblots mirrored the ELISA) was 40%. Moreover, the “pTau (191) level” value with pTau (191) was “reduced”. For the same molecule, the “activated Src, immunoblot” value is on record as “did not engage” on Src and “does not engage” on Src (listed as BK-40143). Moreover, in the data set on pTau (231) (AT180), the “levels of pTau (231) (AT180), Western blot” value is “did not affect”.
